# Laboratory results taken from the kinase profiling compilation of Christmann-Franck et al. (2016).
# Key:
# Assay in all cases: KINOMEscan competition binding
# Details in all cases: compound 10.0 µM
# MATK (human) = MATK (human) (UniProt P42679)
# PIK3CA (human) = PIK3CA (human) (UniProt P42336)
# LRRK2 (human) = LRRK2 (human) (UniProt Q5S007)
# PIP5K1C (human) = PIP5K1C (human) (UniProt O60331)
# HIPK3 (human) = HIPK3 (human) (UniProt Q9H422)
# CDK4 CCND3 (human) = CDK4 CCND3 (human) (UniProt P11802+P30281)
# SNRK (human) = SNRK (human) (UniProt Q9NRH2)
# STK39 (human) = STK39 (human) (UniProt Q9UEW8)
# MAP3K13 (human) = MAP3K13 (human) (UniProt O43283)
# EGFR (human) = EGFR (human) (UniProt P00533)
# TIE1 (human) = TIE1 (human) (UniProt P35590)
# NEK3 (human) = NEK3 (human) (UniProt P51956)
# HUNK (human) = HUNK (human) (UniProt P57058)
# MAP3K2 (human) = MAP3K2 (human) (UniProt Q9Y2U5)
# VRK2 (human) = VRK2 (human) (UniProt Q86Y07)
# MET (human) = MET (human) (UniProt P08581)
# DSTYK (human) = DSTYK (human) (UniProt Q6XUX3)
# TRPM6 (human) = TRPM6 (human) (UniProt Q9BX84)
# [1] = tested on: ABL1 (human), P00519 [E255K]
# ROCK1 (human) = ROCK1 (human) (UniProt Q13464)
# ICK (human) = ICK (human) (UniProt Q9UPZ9)
# GRK1 (human) = GRK1 (human) (UniProt Q15835)
# PIK3CG (human) = PIK3CG (human) (UniProt P48736)
# HIPK2 (human) = HIPK2 (human) (UniProt Q9H2X6)
# CDKL1 (human) = CDKL1 (human) (UniProt Q00532)
# PIK3C2G (human) = PIK3C2G (human) (UniProt O75747)
# TAOK2 (human) = TAOK2 (human) (UniProt Q9UL54)
# NEK11 (human) = NEK11 (human) (UniProt Q8NG66)
# ERN1 (human) = ERN1 (human) (UniProt O75460)
# GRK4 (human) = GRK4 (human) (UniProt P32298)
# SIK3 (human) = SIK3 (human) (UniProt Q9Y2K2)
# PI4KB (human) = PI4KB (human) (UniProt Q9UBF8)
# [2] = tested on: PIK3CA (human), P42336 [E545A]
# IRAK1 (human) = IRAK1 (human) (UniProt P51617)
# MAP3K1 (human) = MAP3K1 (human) (UniProt Q13233)
# HIPK4 (human) = HIPK4 (human) (UniProt Q8NE63)
# ERBB3 (human) = ERBB3 (human) (UniProt P21860)
# CSNK1A1 (human) = CSNK1A1 (human) (UniProt P48729)
# [3] = tested on: PIK3CA (human), P42336 [E545K]
# EPHB6 (human) = EPHB6 (human) (UniProt O15197)
# Sequence of TIE1 (human) (P35590 whole entry, looked up): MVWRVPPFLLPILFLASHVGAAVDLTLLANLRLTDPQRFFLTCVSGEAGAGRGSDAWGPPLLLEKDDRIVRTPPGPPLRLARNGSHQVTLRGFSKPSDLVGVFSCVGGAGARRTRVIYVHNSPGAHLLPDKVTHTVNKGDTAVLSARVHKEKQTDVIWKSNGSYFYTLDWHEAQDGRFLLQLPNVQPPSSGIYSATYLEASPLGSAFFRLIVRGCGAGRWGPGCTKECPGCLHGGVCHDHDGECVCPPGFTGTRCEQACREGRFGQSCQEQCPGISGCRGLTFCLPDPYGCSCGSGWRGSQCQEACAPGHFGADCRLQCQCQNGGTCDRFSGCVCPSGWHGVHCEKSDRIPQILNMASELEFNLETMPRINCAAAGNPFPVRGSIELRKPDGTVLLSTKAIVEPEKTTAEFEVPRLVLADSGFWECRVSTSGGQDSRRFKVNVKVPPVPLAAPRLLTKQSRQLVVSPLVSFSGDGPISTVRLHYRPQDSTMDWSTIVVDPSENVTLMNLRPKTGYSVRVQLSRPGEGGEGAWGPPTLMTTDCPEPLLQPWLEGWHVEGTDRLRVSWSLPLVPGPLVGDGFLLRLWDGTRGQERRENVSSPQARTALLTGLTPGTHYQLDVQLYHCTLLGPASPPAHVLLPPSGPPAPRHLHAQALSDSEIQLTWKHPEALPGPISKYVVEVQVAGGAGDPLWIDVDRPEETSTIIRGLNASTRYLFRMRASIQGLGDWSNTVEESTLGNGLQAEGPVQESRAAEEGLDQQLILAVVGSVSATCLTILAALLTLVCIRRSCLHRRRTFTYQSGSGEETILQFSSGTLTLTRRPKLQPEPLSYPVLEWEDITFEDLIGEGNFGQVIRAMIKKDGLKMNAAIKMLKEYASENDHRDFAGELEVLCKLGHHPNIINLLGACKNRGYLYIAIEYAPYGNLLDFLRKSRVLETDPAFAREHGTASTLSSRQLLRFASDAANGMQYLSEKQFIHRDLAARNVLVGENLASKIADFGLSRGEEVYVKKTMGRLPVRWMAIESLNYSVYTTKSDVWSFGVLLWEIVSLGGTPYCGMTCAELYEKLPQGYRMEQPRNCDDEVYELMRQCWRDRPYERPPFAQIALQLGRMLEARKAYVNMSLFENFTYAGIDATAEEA
# Sequence of HIPK2 (human) (Q9H2X6 whole entry, looked up): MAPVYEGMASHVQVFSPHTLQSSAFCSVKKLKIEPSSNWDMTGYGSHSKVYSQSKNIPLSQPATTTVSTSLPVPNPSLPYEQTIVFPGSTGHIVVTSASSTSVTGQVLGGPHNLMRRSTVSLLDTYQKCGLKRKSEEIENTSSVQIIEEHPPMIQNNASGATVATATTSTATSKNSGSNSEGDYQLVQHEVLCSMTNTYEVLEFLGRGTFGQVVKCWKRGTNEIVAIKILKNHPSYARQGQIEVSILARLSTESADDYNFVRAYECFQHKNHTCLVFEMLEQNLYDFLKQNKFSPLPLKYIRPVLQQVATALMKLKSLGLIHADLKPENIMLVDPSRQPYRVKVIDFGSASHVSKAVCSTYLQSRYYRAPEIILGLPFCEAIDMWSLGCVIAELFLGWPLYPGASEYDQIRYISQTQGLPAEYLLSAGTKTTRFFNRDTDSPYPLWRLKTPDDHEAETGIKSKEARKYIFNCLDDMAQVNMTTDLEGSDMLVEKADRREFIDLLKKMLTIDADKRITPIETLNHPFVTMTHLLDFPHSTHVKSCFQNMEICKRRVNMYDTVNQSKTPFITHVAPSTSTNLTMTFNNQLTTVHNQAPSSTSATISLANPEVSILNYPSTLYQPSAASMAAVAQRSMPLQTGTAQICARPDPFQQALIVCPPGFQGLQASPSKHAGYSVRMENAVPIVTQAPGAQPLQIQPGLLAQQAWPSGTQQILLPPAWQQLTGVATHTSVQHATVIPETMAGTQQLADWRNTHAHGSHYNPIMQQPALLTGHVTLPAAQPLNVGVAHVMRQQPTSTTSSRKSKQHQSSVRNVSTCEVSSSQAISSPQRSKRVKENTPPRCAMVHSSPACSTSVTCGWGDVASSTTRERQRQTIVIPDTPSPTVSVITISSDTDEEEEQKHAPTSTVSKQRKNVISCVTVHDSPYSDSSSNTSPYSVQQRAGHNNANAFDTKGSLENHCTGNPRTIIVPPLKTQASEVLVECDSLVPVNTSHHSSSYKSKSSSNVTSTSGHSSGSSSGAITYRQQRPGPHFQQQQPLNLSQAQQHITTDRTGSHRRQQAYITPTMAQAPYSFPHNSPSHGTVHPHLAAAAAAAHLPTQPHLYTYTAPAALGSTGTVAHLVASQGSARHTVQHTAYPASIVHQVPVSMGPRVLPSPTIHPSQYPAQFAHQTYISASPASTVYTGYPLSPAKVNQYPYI
# Sequence of DSTYK (human) (Q6XUX3 whole entry, looked up): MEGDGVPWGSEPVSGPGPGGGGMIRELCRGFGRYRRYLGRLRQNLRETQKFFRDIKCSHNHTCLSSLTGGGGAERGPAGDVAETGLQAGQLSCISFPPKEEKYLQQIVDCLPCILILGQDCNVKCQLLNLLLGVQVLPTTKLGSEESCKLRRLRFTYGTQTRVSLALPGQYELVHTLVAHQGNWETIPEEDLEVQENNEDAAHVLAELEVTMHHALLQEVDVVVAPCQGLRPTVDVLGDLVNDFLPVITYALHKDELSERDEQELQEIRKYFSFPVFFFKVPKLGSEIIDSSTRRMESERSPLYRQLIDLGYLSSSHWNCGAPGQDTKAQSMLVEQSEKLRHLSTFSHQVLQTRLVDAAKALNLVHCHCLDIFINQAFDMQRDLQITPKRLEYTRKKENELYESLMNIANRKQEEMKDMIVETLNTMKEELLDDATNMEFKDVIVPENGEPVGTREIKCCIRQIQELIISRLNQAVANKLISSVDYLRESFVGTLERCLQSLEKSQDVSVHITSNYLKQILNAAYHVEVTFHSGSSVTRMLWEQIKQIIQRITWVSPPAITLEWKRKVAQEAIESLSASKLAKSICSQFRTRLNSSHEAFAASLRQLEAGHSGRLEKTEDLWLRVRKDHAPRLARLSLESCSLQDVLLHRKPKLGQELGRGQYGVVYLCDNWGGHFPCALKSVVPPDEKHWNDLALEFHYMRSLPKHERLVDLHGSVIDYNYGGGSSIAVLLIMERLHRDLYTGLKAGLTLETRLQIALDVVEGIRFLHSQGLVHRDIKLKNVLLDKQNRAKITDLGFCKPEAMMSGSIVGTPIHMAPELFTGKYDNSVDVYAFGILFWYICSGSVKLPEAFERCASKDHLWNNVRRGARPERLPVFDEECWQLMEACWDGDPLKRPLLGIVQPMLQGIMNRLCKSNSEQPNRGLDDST
# Sequence of HUNK (human) (P57058 whole entry, looked up): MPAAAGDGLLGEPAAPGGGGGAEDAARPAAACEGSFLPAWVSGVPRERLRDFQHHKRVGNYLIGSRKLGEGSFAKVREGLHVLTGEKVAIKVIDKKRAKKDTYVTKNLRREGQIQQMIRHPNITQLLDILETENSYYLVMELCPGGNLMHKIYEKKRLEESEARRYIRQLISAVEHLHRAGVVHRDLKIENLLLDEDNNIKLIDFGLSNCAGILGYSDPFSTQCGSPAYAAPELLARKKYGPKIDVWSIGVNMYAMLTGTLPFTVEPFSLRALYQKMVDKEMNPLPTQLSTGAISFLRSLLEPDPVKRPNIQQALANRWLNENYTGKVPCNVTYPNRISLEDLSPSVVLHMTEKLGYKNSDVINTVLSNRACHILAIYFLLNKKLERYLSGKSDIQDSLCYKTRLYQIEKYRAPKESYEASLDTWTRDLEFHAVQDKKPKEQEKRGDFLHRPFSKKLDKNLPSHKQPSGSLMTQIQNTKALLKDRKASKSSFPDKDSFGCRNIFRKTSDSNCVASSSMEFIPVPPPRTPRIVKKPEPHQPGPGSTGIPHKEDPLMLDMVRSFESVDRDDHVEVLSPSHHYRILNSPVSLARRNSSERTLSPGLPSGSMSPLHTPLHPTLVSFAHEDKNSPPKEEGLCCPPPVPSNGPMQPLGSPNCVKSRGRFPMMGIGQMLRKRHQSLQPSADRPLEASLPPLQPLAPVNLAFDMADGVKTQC
# Sequence of PIK3CA (human) (P42336 whole entry, looked up): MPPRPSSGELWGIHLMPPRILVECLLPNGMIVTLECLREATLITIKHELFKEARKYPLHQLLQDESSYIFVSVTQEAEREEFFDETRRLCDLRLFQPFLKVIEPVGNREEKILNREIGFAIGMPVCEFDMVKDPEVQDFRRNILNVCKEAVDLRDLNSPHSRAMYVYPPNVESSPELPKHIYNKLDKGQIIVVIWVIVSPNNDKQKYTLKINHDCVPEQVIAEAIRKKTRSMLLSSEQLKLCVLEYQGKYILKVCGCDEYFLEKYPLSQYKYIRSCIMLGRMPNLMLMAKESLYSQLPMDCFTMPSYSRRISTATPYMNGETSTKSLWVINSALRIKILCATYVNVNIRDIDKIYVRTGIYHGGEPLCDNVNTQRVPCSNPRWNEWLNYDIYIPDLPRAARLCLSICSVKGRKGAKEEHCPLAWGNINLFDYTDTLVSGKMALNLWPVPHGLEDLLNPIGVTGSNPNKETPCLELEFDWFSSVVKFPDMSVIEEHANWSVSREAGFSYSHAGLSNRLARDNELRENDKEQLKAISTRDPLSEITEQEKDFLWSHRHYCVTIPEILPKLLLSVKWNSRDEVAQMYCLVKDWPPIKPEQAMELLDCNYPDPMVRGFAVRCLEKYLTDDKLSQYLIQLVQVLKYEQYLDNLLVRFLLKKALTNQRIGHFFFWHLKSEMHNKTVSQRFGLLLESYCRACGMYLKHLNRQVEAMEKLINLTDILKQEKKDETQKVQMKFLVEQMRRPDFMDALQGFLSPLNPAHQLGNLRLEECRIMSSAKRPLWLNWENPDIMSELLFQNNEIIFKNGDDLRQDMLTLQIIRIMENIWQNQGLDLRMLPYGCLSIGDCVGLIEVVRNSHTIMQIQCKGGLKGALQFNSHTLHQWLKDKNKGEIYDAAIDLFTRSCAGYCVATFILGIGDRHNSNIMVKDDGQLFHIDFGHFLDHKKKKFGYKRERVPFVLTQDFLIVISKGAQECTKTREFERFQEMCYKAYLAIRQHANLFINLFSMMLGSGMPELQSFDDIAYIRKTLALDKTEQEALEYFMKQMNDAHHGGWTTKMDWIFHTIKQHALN
# Sequence of PIK3CA (human), P42336 [E545K] (P42336 whole entry E545K, looked up): as the sequence (P42336 whole entry, looked up) above, with E545K counted along it
compound,measurement,setting,value
Cc1ccc(NC(=O)c2cccc(C(C)(C)C#N)c2)cc1Nc1ccc2ncn(C)c(=O)c2c1,"kinase still bound, per cent of control",MATK (human),100%
same,"kinase still bound, per cent of control",PIK3CA (human),100%
same,"kinase still bound, per cent of control",LRRK2 (human),32%
same,"kinase still bound, per cent of control",PIP5K1C (human),75%
same,"kinase still bound, per cent of control",HIPK3 (human),86%
same,"kinase still bound, per cent of control",CDK4 CCND3 (human),90%
same,"kinase still bound, per cent of control",SNRK (human),100%
same,"kinase still bound, per cent of control",STK39 (human),100%
same,"kinase still bound, per cent of control",MAP3K13 (human),100%
same,"kinase still bound, per cent of control",EGFR (human),37%
same,"kinase still bound, per cent of control",TIE1 (human),11%
same,"kinase still bound, per cent of control",NEK3 (human),57%
same,"kinase still bound, per cent of control",HUNK (human),100%
same,"kinase still bound, per cent of control",MAP3K2 (human),88%
same,"kinase still bound, per cent of control",VRK2 (human),100%
same,"kinase still bound, per cent of control",MET (human),89%
same,"kinase still bound, per cent of control",DSTYK (human),78%
same,"kinase still bound, per cent of control",TRPM6 (human),100%
same,"kinase still bound, per cent of control",[1],3.4%
same,"kinase still bound, per cent of control",ROCK1 (human),92%
same,"kinase still bound, per cent of control",ICK (human),100%
same,"kinase still bound, per cent of control",GRK1 (human),100%
same,"kinase still bound, per cent of control",PIK3CG (human),99%
same,"kinase still bound, per cent of control",HIPK2 (human),73%
same,"kinase still bound, per cent of control",CDKL1 (human),100%
same,"kinase still bound, per cent of control",PIK3C2G (human),88%
same,"kinase still bound, per cent of control",TAOK2 (human),72%
same,"kinase still bound, per cent of control",NEK11 (human),94%
same,"kinase still bound, per cent of control",ERN1 (human),86%
same,"kinase still bound, per cent of control",GRK4 (human),100%
same,"kinase still bound, per cent of control",SIK3 (human),100%
same,"kinase still bound, per cent of control",PI4KB (human),82%
same,"kinase still bound, per cent of control",[2],89%
same,"kinase still bound, per cent of control",IRAK1 (human),75%
same,"kinase still bound, per cent of control",MAP3K1 (human),76%
same,"kinase still bound, per cent of control",HIPK4 (human),92%
same,"kinase still bound, per cent of control",ERBB3 (human),100%
same,"kinase still bound, per cent of control",CSNK1A1 (human),100%
same,"kinase still bound, per cent of control",[3],100%
same,"kinase still bound, per cent of control",EPHB6 (human),2.4%
